Results on one compound are retold here after US6710090B2, “Inhibitory or blocking agents of molecular generating and/or inducing functions” (priority 1994, dated 2004).

One series addresses T1, vasopressin (Homo sapiens, UniProt P01185).
T1 construct: Effect on Physiological Function of Vasopressin and Insulin as Peptides; purchased Sigma Co. Saint Louis, Mo., USA
The series can be described thus: Physiological function of vasopressin treated with Yoshixol, blood pressure. It is filed as in vivo. As to conditions: rabbit, intravenous vasopressin 100 ng/Kg treated with Yoshixol 4 μl; untreated vasopressin 15-25 mmHg. As for the experimental part:
Each vasopressin and insulin has a physiological effect such as a rise of blood pressure and a fall of sugar level in blood respectively. An effect of Yoshixol on these physiological functions was investigated and compared by injection of each hormone without or with treatment with Yoshixol in rabbit in vivo. When vasopressin (100 ng/Kg, Sigma Co. Saint Louis, Mo., USA) without treatment with Yoshixol was injected intravenously, blood pressure increased by 15-25 mmHg so that this increased level was maintained for about 25 minutes. But, vasopressin (100 ng/Kg) treated with Yoshixol (4 μl) caused a increase in blood pressure of only about 5 mmHg (referred FIG. 6).

The test system of series [1] is chicken myeloblastosis virus (AMV) reverse transcriptase. In words: AMV reverse transcriptase, amount of cDNA synthesis. It is filed as biochemical. To be noted: 0.01 μl of Yoshixol added to 25 units AMV reverse transcriptase, RNA 5 μg, PCR. The procedure: In order to investigate the effect on virus, changes in structure of single strand DNA, double strand DNA and mRNA of E. coli bacteriophage (1 ml of 1 mol solution), which were prepared as non-treated sample and treated sample with 4 μl of Yoshixol, were observed by scanning and transmission electron microscopes. In addition, according a general bacteriological technique, changes in proliferation and in morphological aspect (by scanning and transmission electron microscopes) of E. Coli, which was infected by single strand DNA, double strand DNA or mRNA, were investigated before and after treatment of each phage with Yoshixol. As treated samples, 4 μl of Yoshixol was added in 1 ml of each phage solution which concentration was adjusted to 1 mol. […] In addition, an effect of Yoshixol on chicken myeloblastosis virus (AMV) reverse transcriptase (Gibco Co. Getesburg, Md., USA) was investigated by measuring amount of cDNA synthesis, which was amplified by PCR of RNA(5 μg) and AMV reverse transcriptase (25 units). As treated group, 0.01 μl of Yoshixol was added to 25 units sample of the AMV reverse transcriptase. Thus, the expected production of cDNA was obtained in the non-treated group, however, the amount of cDNA production decreased to 10% of the expected one when Yoshixol was treated (referred FIG. 15).

The subject of series [2] is keratinocytes isolated from a human skin. In words: Anti-cancer effect, cultured keratinocytes, microscopy. It is filed as cell-based. To be noted: 4 μl of Yoshixol. An excerpt:
Adhesive factors between cells play an important role on prolifelation of malignant tumor cells and metastasis. In order to investigate the adhesive factors between cells, intracellular structure of cultured keratinocytes are utilized to observe. Thus, by using keratinocytes isolated from a human skin and cultured in this invention, structure between cells and cellular aspect of keratinocytes (5 days passed after culturing of second generation) were investigated by phase microscope (Olympus Co., IMT-2), transmission type (JEOL, Ltd. JEM 1200, EXII) and scanning type (JEOL, Ltd. JSM-6000F) electron microscopes. In the non-treated group with Yoshixol, the cultured cells proliferated monologously and in order as like as a stone wall. There were normal aspects of intracellular organella and mitosis. There were not blank spaces between cell and filling with intracellular matrix (referred FIGS. 16a, 17a). […] In addition, extracellular matrix has been also dispersed in an irregularity from cells as various sizes of particles (referred FIGS. 16b, 17b). […] And also, Yoshixol has an inhibitory effect of cell prolifelation and metastasis such as tumor cells. […]

Series [3] can be described thus: Stability of solution under light. It is filed as physicochemical. As to conditions: sealed glass tube, stocked under room light, 6 months after the synthesis. The source says: <Stability of Solution Under Light>

In the case of `C=C1CC(C)(C)C=CC1=O` [Yoshixol, 4,4-dimethyl-6-methylene-2-cyclohexen-1-one], at vasopressin, the “increase in blood pressure” value is recorded as “about 5 mmHg”. The “amount of cDNA production, of the expected one” value in series [1] turned out to be 10%. The “aspects of cultured cells” value in series [2] (5 days after culturing of second generation) is on record as “showed diverse irregularity”. Moreover, the “cell membrane and intracellular organella” value in series [2] (electron microscopes) is “destroyed with varieties”. Also, the “Changes in coloring, viscosity and odor” value in series [3] is on record as “did not change”.
